Patent US8329421B2, “Methods of predicting response of a neoplasm to an EGFR inhibitor and detecting interactions between EGFR and an EGFR regulatory protein” (Ventana Medical Systems, Inc., priority 2007, dated 2012)
Read-outs that look alike come from different tables or passages of the source.

What was measured:
[1] = test system: clone 5B7; experiment: Peptide inhibition study (epitope mapping) on EGFR-positive lung squamous cell carcinoma; assay type: binding; conditions: 1000-fold molar excess of peptide, pre-incubated 1 hour at room temperature
Source text: The epitope for the EGFR regulatory-domain-specific monoclonal antibody, clone 5B7, was mapped by peptide inhibition studies. Because the L2G Peptide was used as the immunogen and was used to screen for positive clones, it was known that the 5B7 epitope must be within that 19-amino acid sequence (see SEQ ID NO: 2). The L2G Peptide, a peptide containing the 13 C-terminal amino acid residues of the L2G Peptide, and a peptide containing the six N-terminal amino acid residues of the L2G Peptide plus three additional N-terminal residues (i.e., QIS) corresponding to the respective positions in the human EGFR sequence. The peptides were synthesized by Genemed Synthesis, Inc. (South San Francisco, Calif.).
A known EGFR-positive lung squamous cell carcinoma was chosen for the peptide inhibition study. The 5B7 antibody was pre-incubated with each peptide for 1 hour at room temperature before application to the tissue. A 1000-fold molar excess of peptide compared to antibody was used.

[2] = test system: NSCLC cancer patients; experiment: Response of NSCLC patients to IRESSA therapy by 5B7/3C6 category (Example 6); assay type: in vivo, human; conditions: 250 mg/day orally
Description: (§1) Tissue arrays containing biopsy samples from at least 100 NSCLC cancer patients are obtained. Each patient is treated with IRESSA™ (EGFR-inhibitor) therapy with a dosage of 250 mg/day given orally. Each patient has post-therapy follow-up for up to 5 years. Each biopsy sample is fixed in 10% NBF and paraffin embedded. Five (5) micron sections of each biopsy sample are cut and arrayed on positively charged glass slides. The slides are stained with an RD-binding molecule (e.g., clone 5B7) and an ED-binding molecule (e.g., clone 3C6) according to the protocols in Example 2. The resulting stained array slides are scored by light microscopy by a pathologist according to the following criteria:
(§2) The score for each case is recorded in a database comparing the score for each binding molecule (e.g., 5B7 or 3C6). Approximately 65% of cases are expected to fall into category 1, 19% in category 2, <1% in category 3 and 15% in category 4. Patient outcome is directly related to the scoring category as indicated in Table 2 for an ID-based therapy.

[3] = test system: HCC cancer patients; experiment: Response of HCC patients to IRESSA therapy by 5B7/3C6 category (Example 11); assay type: in vivo, human; conditions: 200-500 mg/day orally
Description: Tissue arrays containing biopsy samples from at least 100 HCC cancer patients are obtained (see, for example, samples collected in JS 0414, “A Pilot Study of Adjuvant Therapy of Gefitinib (Iressa, ZD1839) in Patients with Resectable Hepatocellular Carcinoma”, ClinicalTrials.gov Identifier No. NCT00228501). Each patient is treated with IRESSA™ (EGFR-inhibitor) therapy with a dosage of 200-500 mg/day given orally. Each patient has post-therapy follow-up for at least 12 months. Each biopsy sample is fixed in a standard fixative (e.g., 10% NBF) and paraffin embedded. Sections of each biopsy sample (e.g., 5 μm thick) are cut and arrayed on positively charged glass slides. The slides are stained with an RD-binding molecule (e.g., clone 5B7) and an ED-binding molecule (e.g., clone 3C6) according to the protocols in Example 2. The resulting stained array slides are scored by light microscopy by a pathologist according to the following criteria:
as §2, with “60%” for “65%”, “13%” for “19%”, “5%” for “<1%”, “22%” for “15%”

[4] = test system: non-small cell lung cancer; conditions: cited from earlier work
[5] = test system: breast cancer patients; experiment: Response of breast cancer patients to lapatinib therapy by 5B7/3C6 category (Example 10); assay type: in vivo, human; conditions: 1250-1500 mg/day orally
Description: Tissue arrays containing biopsy samples from at least 100 breast cancer patients are obtained. Each patient is treated with lapatinib (TYKERB™) (HER1 (EGFR)/HER2-inhibitor) with a dosage of 1250-1500 mg/day given orally. Each patient has post-therapy follow-up for at least 20 months. Each biopsy sample is fixed in a standard fixative and paraffin embedded. Sections of each biopsy sample (e.g., 5 μm thick) are cut and arrayed on positively charged glass slides. The slides are stained with an RD-binding molecule (e.g., clone 5B7) and an ED-binding molecule (e.g., clone 3C6) according to the protocols in Example 2. The resulting stained array slides are scored by light microscopy by a pathologist according to the following criteria:
as §2, with “20%” for “65%”, “16%” for “19%”, “3%” for “<1%”, “61%” for “15%”

[6] = test system: NSCLC cancer patients; experiment: Response of NSCLC patients to TARCEVA therapy by 5B7/3C6 category (Example 7); assay type: in vivo, human; conditions: 150 mg/day orally
Description: as §1, with “TARCEVA™ (EGFR inhibitor)” for “IRESSA™ (EGFR-inhibitor)”, “150” for “250”
as §2

[7] = NSCLC patients in categories 1 and 3
[8] = NSCLC patients in categories 2 and 4

Peptide 1: amino acids 1164-1175 of SEQ ID NO: 1 (QISLDNPDYQQD; listed as Homo sapiens)
inhibition of 5B7 binding to tissue [1]: partial inhibition

Peptide 2: amino acids 7-19 of SEQ ID NO: 2; 13 C-terminal amino acid residues of the L2G Peptide (QQDFFPKEAKPNG; listed as Homo sapiens)
inhibition of 5B7 binding to tissue [1]: complete inhibition

COc1cc2ncnc(Nc3ccc(F)c(Cl)c3)c2cc1OCCCN1CCOCC1 [gefitinib]
patient response to therapy [2, 7]: objective response | patient response to therapy [2, 8]: not significantly respond | patient response to therapy ([3]; HCC patients in categories 1 and 3): objective response | patient response to therapy ([3]; HCC patients in categories 2 and 4): not significantly respond | NSCLC patients who responded to the drug ([4]; 250 gefitinib per day): about 10% | NSCLC patients who responded to the drug ([4]; 500 gefitinib per day): about 20%

CS(=O)(=O)CCNCc1ccc(-c2ccc3ncnc(Nc4ccc(OCc5cccc(F)c5)c(Cl)c4)c3c2)o1 [lapatinib]
patient response to therapy ([5]; breast cancer patients in categories 1 and 3): objective response | patient response to therapy ([5]; breast cancer patients in categories 2 and 4): not significantly respond

LDNPDYQQDFFPKEAKPNG (listed as Homo sapiens) [Peptide 3]
inhibition of 5B7 binding to tissue [1]: completely inhibited

C#Cc1cccc(Nc2ncnc3cc(OCCOC)c(OCCOC)cc23)c1 [erlotinib]
patient response to therapy [6, 7]: objective response | patient response to therapy [6, 8]: not significantly respond
